# From EP0013144A1, “Substituted diphenylamine derivatives, compositions and herbicidal uses thereof, and processes for their preparation” (ICI AUSTRALIA LIMITED, priority 1978, dated 1980)
# Assays:
# Type in all cases: in vivo
# Mustard [1] = assay: Pre-emergence herbicidal activity (Example 31); conditions: after three weeks
# Method: (§1) Concentrated formulations of the compounds of the invention were prepared by: • a) in the case of oils and waxy solids, dissolving the compound in toluene containing 7% v/v "Teric" N13 ("Teric" is a Trade MarK and "Teric" N13, a product of ethoxylation of nonylphenol, is available from ICI Australia Limited) and 3% v/v "Kemmat" SC15B ("Kemmat" is a Trade Mark and "Kemmat" SC15B is a formulation of calcium dodecylbenzene sulfonate); or • b) in the case of crystalline solids, adding 5 parts by weight of the compound and 1 part by weight of . ''Dyapol" PT ("Dyapol" is a Trade Mark and "Dyapol" PT is an anionic suspending agent) to 94 parts by weight of an aqueous solution containing 0.25% v/v of "Teric" N8 (a product of ethoxylation of nonylphenol) and ball-milling the mixture to produce a stable suspension. The emulsifiable concentrates and suspensions were then diluted with water to give an aqueous composition of the required concentration suitable for use in the evaluation of the pre-emergence and post-emergence herbicidal activity of the compounds of the invention.
# (§2) The pre-emergent herbicidal activity of the compounds of the invention formulated as described in Example 30 was assessed by the following procedure.
# (§3) The seeds of the test species were sown in rows 2 cm deep in soil contained in seed boxes. The monocotyledonous plants and the dicotyledonous plants were sprayed with the required quantity of a composition of the invention. Two duplicate seed Doxes were prepared in the same manner but were not sprayed with a composition of the invention and were used for comparison purposes. All the boxes were placed in a glasshouse, lightly watered with an overhead spray to initiate germination and then sub-irrigated as required for optimum plant growth. After three weeks the boxes were removed from the glasshouse and the effect of the treatment was visually assessed. The results are presented in Table 3 where the damage to plants is rated on a scale of from 0 to 3 where 0 represents from 0 to 25% damage, 3 represents 75 to 99% kill and 3+ represents 100% kill.
# (§4) A dash (-) means that no experiment was carried out.
# Wild Oats [2] = assay: Pre-emergence herbicidal activity (Example 31); conditions: after three weeks
# Method: as §1, §2, §3, §4
# Japanese millet [3] = assay: Pre-emergence herbicidal activity (Example 31); conditions: after three weeks
# Method: as §1, §2, §3, §4
# Sunflower [4] = assay: Pre-emergence herbicidal activity (Example 31); conditions: after three weeks
# Method: as §1, §2, §3, §4
# Ipomea [5] = assay: Pre-emergence herbicidal activity (Example 31); conditions: after three weeks
# Method: as §1, §2, §3, §4
# Wheat [6] = assay: Post-emergence herbicidal activity (Example 32); design: key: 0-3 scale: 0 = 0-25% damage, 3 = 75-99% kill, 3+ = 100% kill; conditions: 3 weeks after spraying
# Method: as §1
# (§5) The post-emergent herbicidal activity of the compounds of the invention formulated as described in Example 30 was assessed by the following procedure.
# (§6) The seeds of the test species were sown in rows 2 cm deep in soil contained in seed boxes. The monocotyledonous plants and the dicotyledonous plants were sown in separate seed boxes in duplicate. The four seed boxes were placed in a glasshouse, lightly watered with an overhead spray to initiate germination and then sub-irrigated as required for optimum plant growth. After the plants had grown to a height of about 10 to 12.5 cm one box of each of the monocotyledonous plants and the dicotyledonous plants was removed from the glasshouse and sprayed with the required quantity of a composition of the invention. After spraying the boxes were returned to the glasshouse for further 3 weeks and the effects of the treatment was visually assessed by comparison with the untreated controls. The results are presented in Table 4 where the damage to plants is rated on a scale of from 0 to 3 where 0 represents 0 to 25% damage, 3 represents 75 to 99% kill and 3+ represents 100% kill. A dash (-) means that no experiment was carried out.
# Mustard [7] = assay: Post-emergence herbicidal activity (Example 32); conditions: 3 weeks after spraying
# Method: as §1, §5, §6
# Wild Oats [8] = assay: Post-emergence herbicidal activity (Example 32); conditions: 3 weeks after spraying
# Method: as §1, §5, §6
# Japanese millet [9] = assay: Post-emergence herbicidal activity (Example 32); conditions: 3 weeks after spraying
# Method: as §1, §5, §6
# Sunflower [10] = assay: Post-emergence herbicidal activity (Example 32); conditions: 3 weeks after spraying
# Method: as §1, §5, §6
# Ryegrass [11] = assay: Post-emergence herbicidal activity (Example 32); conditions: 3 weeks after spraying
# Method: as §1, §5, §6
# Ipomea [12] = assay: Post-emergence herbicidal activity (Example 32); conditions: 3 weeks after spraying
# Method: as §1, §5, §6
# Ryegrass [13] = assay: Pre-emergence herbicidal activity (Example 31); design: key: 0-3 scale: 0 = 0-25% damage, 3 = 75-99% kill, 3+ = 100% kill; conditions: after three weeks
# Method: as §1, §2, §3, §4
# Wheat [14] = assay: Pre-emergence herbicidal activity (Example 31); design: key: 0-3 scale: 0 = 0-25% damage, 3 = 75-99% kill, 3+ = 100% kill; conditions: after three weeks
# Method: as §1, §2, §3, §4
# Winter wheat [15] = assay: Post-emergence herbicidal test, young pot plants (Example 33); design: key: 0 = 0-20% damage, 5 = complete kill, vs untreated control; conditions: 2.0 kg/ha, after 14 days
# Method: (§7) The compounds were formulated for test by mixing an appropriate amount with 5 ml of an emulsion prepared by diluting 160 ml of a solution containing 21.S g per litre of "Span" 80 and 78.2 g per litre of "Tween" 20 in methylcyclohexanone to 500 ml with water. "Span" 80 is a Trade Mark for a surface-active agent comprising sorbitan monolaurate. "Tween" 20 is a Trade Mark for a surface-active agent comprising a condensate of sorbitan monolaurate with 20 molar proportions of ethylene oxide. Each 5 ml emulsion containing a test compound was'then diluted to 40 ml with water and sprayed on to young pot plants (post-emergence test) of the species named in Table 5 below. Damage to test plants was assessed after 14 days on a scale of 0 to 5 where 0 is 0 to 20% damage and 5 is complete kill. In a test for pre-emergence herbicidal activity, seeds of the test plants were sown in a shallow slit formed in the surface of soil in fibre trays. The surface was then levelled and sprayed, and fresh soil then spread thinly over the sprayed surface. Assessment of herbicidal damage was carried out after 21 days using the same scale of 0 to 5 as the post-emergence test. In both cases the degree of herbicidal damage was assessed by comparison with untreated control plants. A dash (-) means that no experiment was carried out.
# Ipomea purpurea = assay: as above; conditions: 2.0 kg/ha, after 14 days
# Method: as §7
# Chenopodium album = assay: as above; conditions: 2.0 kg/ha, after 14 days
# Method: as §7
# Soy bean [16] = assay: as above; conditions: 2.0 kg/ha, after 14 days
# Method: as §7
# Sugar beet [17] = assay: as above; conditions: 2.0 kg/ha, after 14 days
# Method: as §7
# Rape [18] = assay: as above; conditions: 2.0 kg/ha, after 14 days
# Method: as §7
# Cotton [19] = assay: as above; conditions: 2.0 kg/ha, after 14 days
# Method: as §7
# Polygonum aviculare = assay: as above; conditions: 2.0 kg/ha, after 14 days
# Method: as §7
# Senecio vulgaris [20] = assay: as above; conditions: 2.0 kg/ha, after 14 days
# Method: as §7
# Amaranthus retroflexus = assay: as above; conditions: 2.0 kg/ha, after 14 days
# Method: as §7
# Maize [21] = assay: Pre-emergence herbicidal test, fibre trays (Example 33); design: key: 0 = 0-20% damage, 5 = complete kill, vs untreated control; conditions: 2.0 kg/ha, after 21 days
# Method: as §7
# Soy bean [22] = assay: as above; conditions: 2.0 kg/ha, after 21 days
# Method: as §7
# Sugar beet [23] = assay: as above; conditions: 2.0 kg/ha, after 21 days
# Method: as §7
# Rape [24] = assay: as above; conditions: 2.0 kg/ha, after 21 days
# Method: as §7
# Winter wheat [25] = assay: as above; conditions: 2.0 kg/ha, after 21 days
# Method: as §7
# Cotton [26] = assay: as above; conditions: 2.0 kg/ha, after 21 days
# Method: as §7
# Senecio vulgaris [27] = assay: as above; conditions: 2.0 kg/ha, after 21 days
# Method: as §7
# Rice [28] = assay: as above; conditions: 2.0 kg/ha, after 21 days
# Method: as §7
# Maize [29] = assay: Post-emergence herbicidal test, young pot plants (Example 33); conditions: 2.0 kg/ha, after 14 days
# Method: as §7
# Rice [30] = assay: as above; conditions: 2.0 kg/ha, after 14 days
# Method: as §7
smiles,measurement,setting,value
CCCCSC(=O)C(C)Oc1ccc(Nc2ccc(C(F)(F)F)cc2[N+](=O)[O-])cc1 (centres unmarked) [Compound 62],"damage to plants, Ms",Mustard [1]; 1 kg/ha,0 (0 represents from 0 to 25% damage)
same,"damage to plants, Ot",Wild Oats [2]; 1 kg/ha,1
same,"damage to plants, Jm",Japanese millet [3]; 1 kg/ha,2
same,"damage to plants, Sf",Sunflower [4]; 1 kg/ha,0 (0 represents from 0 to 25% damage)
same,"damage to plants, Ip",Ipomea [5]; 1 kg/ha,0 (0 represents from 0 to 25% damage)
same,"damage to plants, Wh",Wheat [6]; 1 kg/ha,3 (3 represents 75 to 99% kill)
same,"damage to plants, Ms",Mustard [7]; 1 kg/ha,0 (0 represents 0 to 25% damage)
same,"damage to plants, Ot",Wild Oats [8]; 1 kg/ha,3 (3 represents 75 to 99% kill)
same,"damage to plants, Jm",Japanese millet [9]; 1 kg/ha,3+ (3+ represents 100% kill)
same,"damage to plants, Sf",Sunflower [10]; 1 kg/ha,0 (0 represents 0 to 25% damage)
same,"damage to plants, Rg",Ryegrass [11]; 1 kg/ha,3+ (3+ represents 100% kill)
same,"damage to plants, Ip",Ipomea [12]; 1 kg/ha,0 (0 represents 0 to 25% damage)
same,"damage to plants, Rg",Ryegrass [13]; 1 kg/ha,2
same,"damage to plants, Wh",Wheat [14]; 1 kg/ha,0 (0 represents from 0 to 25% damage)
"COC(=O)C(C)Oc1ccc(Nc2ccc(Cl)cc2)cc1 (centres unmarked) [Compound 12, Methyl 2-[4-(4-chloroanilino)prienoxy]propionate]","damage to test plants, Ww",Winter wheat [15],0 (0 is 0 to 20% damage)
same,"damage to test plants, Ip",Ipomea purpurea,0 (0 is 0 to 20% damage)
same,"damage to test plants, Ca",Chenopodium album,0 (0 is 0 to 20% damage)
same,"damage to test plants, Sy",Soy bean [16],0 (0 is 0 to 20% damage)
same,"damage to test plants, Sb",Sugar beet [17],1
same,"damage to test plants, Rp",Rape [18],0 (0 is 0 to 20% damage)
same,"damage to test plants, Ct",Cotton [19],0 (0 is 0 to 20% damage)
same,"damage to test plants, Pi",Polygonum aviculare,0 (0 is 0 to 20% damage)
same,"damage to test plants, Sn",Senecio vulgaris [20],1
same,"damage to test plants, Am",Amaranthus retroflexus,2
same,"herbicidal damage, Mz",Maize [21],0 (0 is 0 to 20% damage)
same,"herbicidal damage, Sy",Soy bean [22],1
same,"herbicidal damage, Sb",Sugar beet [23],2
same,"herbicidal damage, Rp",Rape [24],1
same,"herbicidal damage, Ww",Winter wheat [25],0 (0 is 0 to 20% damage)
same,"herbicidal damage, Ct",Cotton [26],1
same,"herbicidal damage, Sn",Senecio vulgaris [27],0 (0 is 0 to 20% damage)
same,"herbicidal damage, Rc",Rice [28],0 (0 is 0 to 20% damage)
same,"damage to test plants, Mz",Maize [29],2
same,"damage to test plants, Rc",Rice [30],0 (0 is 0 to 20% damage)
"COC(=O)C(C)Oc1ccc(N(C)c2ccc(Cl)cc2)cc1 (centres unmarked) [Compound 13, Methyl 2-[4-(4-chloro-N-methylanilino)phenoxy]-propionate]","damage to plants, Ms",Mustard [1]; 1 kg/ha,0 (0 represents from 0 to 25% damage)
same,"damage to plants, Ms",Mustard [1]; 5 kg/ha,0 (0 represents from 0 to 25% damage)
same,"damage to plants, Ot",Wild Oats [2]; 1 kg/ha,0 (0 represents from 0 to 25% damage)
same,"damage to plants, Ot",Wild Oats [2]; 5 kg/ha,0 (0 represents from 0 to 25% damage)
same,"damage to plants, Jm",Japanese millet [3]; 1 kg/ha,0 (0 represents from 0 to 25% damage)
same,"damage to plants, Jm",Japanese millet [3]; 5 kg/ha,0 (0 represents from 0 to 25% damage)
same,"damage to plants, Sf",Sunflower [4]; 1 kg/ha,0 (0 represents from 0 to 25% damage)
same,"damage to plants, Sf",Sunflower [4]; 5 kg/ha,0 (0 represents from 0 to 25% damage)
same,"damage to plants, Ip",Ipomea [5]; 1 kg/ha,0 (0 represents from 0 to 25% damage)
same,"damage to plants, Ip",Ipomea [5]; 5 kg/ha,0 (0 represents from 0 to 25% damage)
same,"damage to plants, Wh",Wheat [6]; 1 kg/ha,0 (0 represents 0 to 25% damage)
same,"damage to plants, Wh",Wheat [6]; 5 kg/ha,0 (0 represents 0 to 25% damage)
same,"damage to plants, Ms",Mustard [7]; 1 kg/ha,0 (0 represents 0 to 25% damage)
same,"damage to plants, Ms",Mustard [7]; 5 kg/ha,0 (0 represents 0 to 25% damage)
same,"damage to plants, Ot",Wild Oats [8]; 1 kg/ha,0 (0 represents 0 to 25% damage)
same,"damage to plants, Ot",Wild Oats [8]; 5 kg/ha,0 (0 represents 0 to 25% damage)
same,"damage to plants, Jm",Japanese millet [9]; 1 kg/ha,3 (3 represents 75 to 99% kill)
same,"damage to plants, Jm",Japanese millet [9]; 5 kg/ha,3 (3 represents 75 to 99% kill)
same,"damage to plants, Sf",Sunflower [10]; 1 kg/ha,0 (0 represents 0 to 25% damage)
same,"damage to plants, Sf",Sunflower [10]; 5 kg/ha,0 (0 represents 0 to 25% damage)
same,"damage to plants, Rg",Ryegrass [11]; 1 kg/ha,1
same,"damage to plants, Rg",Ryegrass [11]; 5 kg/ha,3 (3 represents 75 to 99% kill)
same,"damage to plants, Ip",Ipomea [12]; 1 kg/ha,0 (0 represents 0 to 25% damage)
same,"damage to plants, Ip",Ipomea [12]; 5 kg/ha,0 (0 represents 0 to 25% damage)
same,"damage to plants, Rg",Ryegrass [13]; 1 kg/ha,0 (0 represents from 0 to 25% damage)
same,"damage to plants, Rg",Ryegrass [13]; 5 kg/ha,1
same,"damage to plants, Wh",Wheat [14]; 1 kg/ha,0 (0 represents from 0 to 25% damage)
same,"damage to plants, Wh",Wheat [14]; 5 kg/ha,0 (0 represents from 0 to 25% damage)
